Laboratory results reported in ChEMBL document CHEMBL1124053, “Synthesis, pharmacology, and molecular modeling studies of semirigid, nicotinic agonists” (1988).

test: Potency (reciprocal of the equipotent molar ratio compared to carbamylcholine), estimated by contracture of the frog rectus abdominis muscle; assay type: functional

Compared with `CC(=O)C1=CC[N+](C)(C)CC1`, `C[C@H](O)C1=CC[N+](C)(C)CC1` is lower in Potency: 50 for the first, 2 for the second.

First: C[C@H](O)C1CC[N+](C)(C)CC1
Second: CC(=O)C1CC[N+](C)(C)CC1
The Potency of the first is lower: 0.25 for the first, 9.1 for the second.

Going from `C[N+]1(C)CC=C(CO)CC1` to `C[N+]1(C)CCC(=NO)CC1`, the Potency falls from 0.35 to 0.0055.

Going from `C[N+]1(C)CCN(C(=O)C(F)(F)F)CC1` to `CC(=O)N1CC[N+](C)(C)CC1`, the Potency falls from 4.6 to 2.6.
